Assay results as given in the supplement of paper PMC10331698.
± gives the standard deviation of the averaged measurements.

How the values were obtained:
Assay in all cases: level (log10 ratio to DMSO vehicle control); higher = higher biomarker level / cell amount than vehicle control
[1] = compound: O=S(=O)(Cl)C(F)(F)C(F)(F)C(F)(F)C(F)(F)C(F)(F)C(F)(F)C(F)(F)C(F)(F)F [Perfluoro-1-octanesulfonyl chloride]; details: in DMSO
Method: (§1)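 BioMAP Diversity Plus panel of 12 human primary cell co-culture systems (3C, 4H, LPS, SAg, BT, BF4T, BE3C, CASM3C, HDF3CGF, KF3CT, MyoF, Mphg). Compounds were added 1 h before stimulation and left for 24 h (MyoF 48 h; BT 72 h for soluble read-outs or 6 d for IgG). Biomarkers were read by ELISA, cytotoxicity by SRB, PBMC viability and proliferation by Alamar Blue. Each well value was divided by the mean of 8 DMSO control wells on the same plate and log10 transformed; duplicate blinded samples were tested at 4 concentrations.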

Nonafluoropentanamide = compound: NC(=O)C(F)(F)C(F)(F)C(F)(F)C(F)(F)F [Nonafluoropentanamide]; details: in DMSO
Method: as §1

[2] = compound: O=C(O)C(F)(F)C(F)(F)C(F)(F)C(F)(F)C(F)(F)C(F)(F)C(F)(F)C(F)(F)C(F)(F)C(F)F [11-H-Perfluoroundecanoic acid]; details: in DMSO
Method: as §1

[3] = compound: NS(=O)(=O)C(F)(F)C(F)(F)C(F)(F)C(F)(F)C(F)(F)C(F)(F)F [Perfluorohexanesulfonamide]; details: in DMSO
Method: as §1

[4] = compound: O=S(=O)(F)C(F)(F)C(F)(F)C(F)(F)C(F)(F)C(F)(F)C(F)(F)C(F)(F)C(F)(F)F [Perfluorooctanesulfonyl fluoride]; details: in DMSO
Method: as §1

[5] = compound: NC(=O)C(F)(F)C(F)(F)C(F)(F)C(F)F; details: in DMSO
Method: as §1

Hexafluoroamylene glycol = compound: OCC(F)(F)C(F)(F)C(F)(F)CO [Hexafluoroamylene glycol]; details: in DMSO
Method: as §1

[6] = compound: O=S(=O)(O)C(F)(F)C(F)(F)C(F)(F)C(F)(F)C(F)(F)C(F)(F)C(F)(F)C(F)(F)C(F)(F)C(F)(F)F [Sodium perfluorodecanesulfonate]; details: in DMSO
Method: as §1

Octafluoroadipamide = compound: NC(=O)C(F)(F)C(F)(F)C(F)(F)C(F)(F)C(N)=O [Octafluoroadipamide]; details: in DMSO
Method: as §1

[7] = compound: C=CC(=O)OCC(F)(F)C(F)(F)C(F)(F)COC(=O)C=C [1H,1H,5H,5H-Perfluoro-1,5-pentanediol diacrylate]; details: 6700 nM; in DMSO
Method: as §1

[8] = compound: O=C(O)C=CC(F)(C(F)(F)F)C(F)(F)F [3-(Perfluoroisopropyl)-2-propenoic acid]; details: in DMSO
Method: as §1

[9] = compound: FC(F)(F)C(F)(F)C(F)(F)C(F)(F)C(F)(F)C(F)(F)C(F)(F)I [1-Iodopentadecafluoroheptane]; details: in DMSO
Method: as §1

[10] = compound: COC(=O)C(F)(F)C(F)(F)OC(F)(C(F)(F)F)C(F)(F)OC(F)=C(F)F [Methyl perfluoro(3-(1-ethenyloxypropan-2-yloxy)propanoate)]; details: in DMSO
Method: as §1

[11] = compound: C=C(C)C(=O)OCCC(F)(F)C(F)(F)C(F)(F)C(F)(F)C(F)(F)C(F)(F)F [6:2 Fluorotelomer methacrylate]; details: in DMSO
Method: as §1

[12] = compound: O=S(=O)(O)CCC(F)(F)C(F)(F)C(F)(F)C(F)(F)C(F)(F)C(F)(F)F [6:2 Fluorotelomer sulfonic acid]; details: in DMSO
Method: as §1

Heptafluorobutyl iodide = compound: FC(F)(F)C(F)(F)C(F)(F)CI [Heptafluorobutyl iodide]; details: in DMSO
Method: as §1

[13] = compound: FC(F)(F)C(F)(F)CNCC(F)(F)C(F)(F)F [Bis(1H,1H-perfluoropropyl)amine]; details: in DMSO
Method: as §1

[14] = compound: FC(F)(F)C(F)(F)C(F)(F)C(F)(F)C(F)(F)C(F)(F)CC1CO1 [3-(Perfluorohexyl)-1,2-epoxypropane]; details: in DMSO
Method: as §1

[15] = compound: FC(F)(F)C(F)(F)C(F)(F)CC1CO1 [1H,1H-Heptafluorobutyl epoxide]; details: in DMSO
Method: as §1

BT:PBMC Cytotoxicity
level (log10) ([1]; 6700 nM): 0.0495 ± 0.016 | level (log10) ([1]; 20000 nM): 0.055 | level (log10) ([1]; 60000 nM): 0.114 ± 0.0021 | level (log10) (Nonafluoropentanamide; 6700 nM): 0.024 ± 0.0042 | level (log10) (Nonafluoropentanamide; 20000 nM): 0.02 ± 0.0028 | level (log10) (Nonafluoropentanamide; 60000 nM): 0.0155 ± 0.011 | level (log10) ([2]; 6700 nM): 0.0055 ± 0.0035 | level (log10) ([2]; 20000 nM): 0.0375 ± 0.0064 | level (log10) ([3]; 6700 nM): 0.0405 ± 0.011 | level (log10) ([3]; 20000 nM): 0.047 ± 0.027 | level (log10) ([3]; 60000 nM): 0.0775 ± 0.011 | level (log10) ([4]; 6700 nM): -0.001 ± 0.016 | level (log10) ([4]; 20000 nM): -0.01 ± 0.041 | level (log10) ([4]; 60000 nM): -0.005 ± 0.0071 | level (log10) ([5]; 6700 nM): -0.001 ± 0.0042 | level (log10) ([5]; 20000 nM): -0.0015 ± 0.0035 | level (log10) ([5]; 60000 nM): 0.016 | level (log10) (Hexafluoroamylene glycol; 6700 nM): 0.008 ± 0.024 | level (log10) (Hexafluoroamylene glycol; 20000 nM): 0.008 ± 0.0057 | level (log10) (Hexafluoroamylene glycol; 60000 nM): -0.005 ± 0.0099 | level (log10) ([6]; 1500 nM): -0.025 ± 0.023 | level (log10) ([6]; 4400 nM): -0.005 ± 0.0042 | level (log10) ([6]; 13000 nM): -0.0035 ± 0.026 | level (log10) ([6]; 40000 nM): 0.007 ± 0.035 | level (log10) (Octafluoroadipamide; 6700 nM): 0.0125 ± 0.0021 | level (log10) (Octafluoroadipamide; 20000 nM): 0.018 ± 0.011 | level (log10) (Octafluoroadipamide; 60000 nM): 0.005 ± 0.051 | level (log10) [7]: -0.201 ± 0.0092 | level (log10) ([8]; 6700 nM): -0.016 ± 0.0042 | level (log10) ([8]; 20000 nM): 0.002 ± 0.0042 | level (log10) ([8]; 60000 nM): 0.021 ± 0.0057 | level (log10) ([9]; 6700 nM): 0.014 ± 0.0057 | level (log10) ([9]; 20000 nM): 0.0075 ± 0.049 | level (log10) ([10]; 6700 nM): 0.0195 ± 0.036 | level (log10) ([10]; 20000 nM): 0.049 ± 0.058 | level (log10) ([11]; 6700 nM): 0.0045 ± 0.021 | level (log10) ([11]; 20000 nM): 0.018 ± 0.03 | level (log10) ([11]; 60000 nM): 0.0285 ± 0.032 | level (log10) ([12]; 6700 nM): 0.007 | level (log10) ([12]; 20000 nM): 0.0235 ± 0.0064 | level (log10) ([12]; 60000 nM): 0.045 ± 0.0014 | level (log10) (Heptafluorobutyl iodide; 6700 nM): 0.0515 ± 0.029 | level (log10) (Heptafluorobutyl iodide; 20000 nM): 0.01 ± 0.0028 | level (log10) (Heptafluorobutyl iodide; 60000 nM): 0.0125 ± 0.032 | level (log10) ([13]; 6700 nM): 0.007 ± 0.013 | level (log10) ([13]; 20000 nM): 0.005 ± 0.024 | level (log10) ([13]; 60000 nM): 0.0125 ± 0.013 | level (log10) ([14]; 6700 nM): -0.016 ± 0.0028 | level (log10) ([14]; 20000 nM): -0.017 ± 0.025 | level (log10) ([14]; 60000 nM): 0.0175 ± 0.016 | level (log10) ([15]; 6700 nM): 0.0175 ± 0.026 | level (log10) ([15]; 20000 nM): -0.0025 ± 0.022 | level (log10) ([15]; 60000 nM): 0.017 ± 0.013

BF4T:CCL2/MCP-1
level (log10) ([1]; 6700 nM): 0.038 ± 0.028 | level (log10) ([1]; 20000 nM): -0.0205 ± 0.021 | level (log10) ([1]; 60000 nM): -0.378 ± 0.021 | level (log10) (Nonafluoropentanamide; 6700 nM): 0.001 ± 0.013 | level (log10) (Nonafluoropentanamide; 20000 nM): -0.0615 ± 0.023 | level (log10) (Nonafluoropentanamide; 60000 nM): -0.105 ± 0.03 | level (log10) ([2]; 6700 nM): -0.162 ± 0.02 | level (log10) ([2]; 20000 nM): -0.2635 ± 0.0021 | level (log10) ([3]; 6700 nM): -0.0415 ± 0.018 | level (log10) ([3]; 20000 nM): -0.072 ± 0.0085 | level (log10) ([3]; 60000 nM): -0.107 ± 0.0042 | level (log10) ([4]; 6700 nM): 0.006 ± 0.0071 | level (log10) ([4]; 20000 nM): -0.0425 ± 0.0064 | level (log10) ([4]; 60000 nM): -0.0055 ± 0.037 | level (log10) ([5]; 6700 nM): 0.008 ± 0.0042 | level (log10) ([5]; 20000 nM): -0.0135 ± 0.0092 | level (log10) ([5]; 60000 nM): 0.0165 ± 0.047 | level (log10) (Hexafluoroamylene glycol; 6700 nM): 0.013 ± 0.013 | level (log10) (Hexafluoroamylene glycol; 20000 nM): 0.0145 ± 0.016 | level (log10) (Hexafluoroamylene glycol; 60000 nM): 0.039 ± 0.045 | level (log10) ([6]; 1500 nM): 0.0015 ± 0.011 | level (log10) ([6]; 4400 nM): 0.008 ± 0.018 | level (log10) ([6]; 13000 nM): 0.0125 ± 0.043 | level (log10) ([6]; 40000 nM): 0.051 ± 0.0042 | level (log10) (Octafluoroadipamide; 6700 nM): 0.003 ± 0.011 | level (log10) (Octafluoroadipamide; 20000 nM): -0.0025 ± 0.0064 | level (log10) (Octafluoroadipamide; 60000 nM): -0.02 ± 0.031 | level (log10) [7]: -0.073 ± 0.0099 | level (log10) ([8]; 6700 nM): 0.0045 ± 0.023 | level (log10) ([8]; 20000 nM): 0.003 ± 0.013 | level (log10) ([8]; 60000 nM): 0.0505 ± 0.076 | level (log10) ([9]; 6700 nM): -0.0105 ± 0.0092 | level (log10) ([9]; 20000 nM): 0.011 ± 0.02 | level (log10) ([10]; 6700 nM): 0.041 ± 0.033 | level (log10) ([10]; 20000 nM): -0.152 ± 0.32 | level (log10) ([11]; 6700 nM): 0.0165 ± 0.005 | level (log10) ([11]; 20000 nM): -0.012 ± 0.014 | level (log10) ([11]; 60000 nM): 0.002 ± 0.021 | level (log10) ([12]; 6700 nM): 0.0035 ± 0.0064 | level (log10) ([12]; 20000 nM): -0.024 ± 0.028 | level (log10) ([12]; 60000 nM): -0.0335 ± 0.069 | level (log10) (Heptafluorobutyl iodide; 6700 nM): 0.0025 ± 0.028 | level (log10) (Heptafluorobutyl iodide; 20000 nM): 0.068 ± 0.11 | level (log10) (Heptafluorobutyl iodide; 60000 nM): 0.046 ± 0.023 | level (log10) ([13]; 6700 nM): -0.004 ± 0.014 | level (log10) ([13]; 20000 nM): -0.009 ± 0.027 | level (log10) ([13]; 60000 nM): -0.0295 ± 0.015 | level (log10) ([14]; 6700 nM): -0.003 ± 0.028 | level (log10) ([14]; 20000 nM): -0.007 ± 0.028 | level (log10) ([14]; 60000 nM): 0.017 ± 0.028 | level (log10) ([15]; 6700 nM): 0.005 ± 0.0014 | level (log10) ([15]; 20000 nM): -0.0095 ± 0.0035 | level (log10) ([15]; 60000 nM): 0.014 ± 0.0042
